Measured values reported in US8546339B2, “Soothing cosmetic or pharmaceutical composition comprising a peptide which activates HMG-CoA reductase” (ISP Investments Inc., priority 2008, dated 2013).
Where no end group is shown, it is not given here.

Tests used:
HMG-CoA reductase = test: Expression of HMG-CoA reductase in normal human keratinocytes (immunofluorescence); assay type: cell-based; conditions: peptide 0.5 ppm (1% of 50 ppm stock), 24 or 48 hours, anti-HMG-CoA reductase antibody, epifluorescence microscopy
Method: The goal of this study is to determine the influence of peptide SEQ ID No. 5 on the expression of HMG-CoA reductase in normal human keratinocytes.
Normal human keratinocytes in culture are treated with a 1% stock solution at 50 ppm of peptide SEQ ID No. 5 for 24 or 48 hours (the medium in the presence of the active ingredient is changed every 24 hours). The cells are then washed and fixed in cold methanol for 4 minutes at 4° C. The cells are incubated in the presence of a polyclonal rabbit antibody specific for HMG-CoA reductase (Millipore, Upstate), and then a secondary antibody coupled with a fluorescent dye. The cells are then examined by epifluorescence microscope (Nikon Eclipse E600 microscope).

[1] = system: interleukin-1 alpha (IL-1 alpha); test: Ex vivo IL-1 alpha secretion by human skin biopsies (ELISA); assay type: cell-based; conditions: peptide 0.5 ppm 24 h, vs controls untreated by the peptide
Method: The goal of this study is to determine the ex vivo effect of peptide SEQ ID No. 5 on the production of the IL-1 alpha cellular inflammation mediator by biopsies of human skin cultivated under standard conditions or subjected to stress by UVB radiation or SDS.
5 mm-diameter biopsies of human skin are maintained in culture at the air-liquid interface in the presence of standard culture medium. The samples are treated with a 1% dilution of a solution at 50 ppm of peptide SEQ ID No. 5 for 24 hours, and then irradiated by UVB radiation (200 mJ/cm^2) and put back in culture for 24 hours, or subjected to contact with SDS at 2.5% for 24 hours in the presence of the same concentration of peptide SEQ ID No. 5. Controls untreated by the peptide are carried out under the same conditions. At the end of the experiment, the quantity of interleukin-1 alpha salted out in the culture medium is assayed by the ELISA technique.

HMG-CoA reductase expression (cytoplasmic fluorescence) (HMG-CoA reductase): more intense cytoplasmic fluorescence
Substance: Arg-Gly-Lys-Ser-NH2 (RGKS-NH2) [SEQ ID No. 5]
reduction of IL-1 alpha released in culture medium after SDS stress ([1]; SDS 2.5% for 24 hours with peptide): 58% | reduction of IL-1 alpha released in culture medium after UVB radiation ([1]; UVB 200 mJ/cm^2, 24 h culture): 40%
